How the values were obtained:
K. pneumoniae = assay: MIC of imipenem, ertapenem and meropenem; type: cell-based, Klebsiella pneumoniae
S. typhimurium = assay: MIC of imipenem, ertapenem and meropenem; type: cell-based

C[C@@H](O)[C@H]1C(=O)N2C(C(=O)O)=C(S[C@@H]3CN[C@H](C(=O)N(C)C)C3)[C@H](C)[C@H]12 [MEM, meropenem]
MIC (K. pneumoniae; K. pneumoniae KIE, NDM-1 + SHV-38 + CMY-16 + OXA-10): 1 µg/mL | MIC (K. pneumoniae; K. pneumoniae KPN (CTX-M-15)): 0.12 µg/mL | MIC (K. pneumoniae; K. pneumoniae KPN, CTX-M-15, non-carbapenemase producer): 0.012 µg/mL | MIC (K. pneumoniae; K. pneumoniae LEG (CTX-M-15 + TEM-1 + SHV-12)): 3 µg/mL | MIC (K. pneumoniae; K. pneumoniae LEG, CTX-M-15 + TEM-1 + SHV-12, non-carbapenemase producer, porin deficiency): 3 µg/mL | MIC (K. pneumoniae; K. pneumoniae LIB (OXA-48)): >32 µg/mL | MIC (K. pneumoniae; K. pneumoniae LIB, OXA-48): 16 µg/mL | MIC (K. pneumoniae; K. pneumoniae LIE, KPC-2 + TEM-2 + OXA-9): >32 µg/mL | MIC (K. pneumoniae; K. pneumoniae LOU, OXA-48): 0.5 µg/mL | MIC (K. pneumoniae; K. pneumoniae MAD (VIM-1 + CTX-M-3)): 1 µg/mL | MIC (K. pneumoniae; K. pneumoniae MAD, VIM-1+ CTX-M-3): 1 µg/mL | MIC (K. pneumoniae; K. pneumoniae MEK (CTX-M-15 + SHV-11)): 6 µg/mL | MIC (K. pneumoniae; K. pneumoniae MEK, CTX-M-15 + SHV-11, non-carbapenemase producer, porin deficiency): 6 µg/mL | MIC (K. pneumoniae; K. pneumoniae MUS (KPC-2 + TEM-1 + SHV-11 + SHV-12)): 1.5 µg/mL | MIC (K. pneumoniae; K. pneumoniae MUS, KPC-2 + TEM-1 + SHV-11 + SHV-12): 1.5 µg/mL | MIC (K. pneumoniae; K. pneumoniae OM2 (NDM-1 + TEM-1 + CTX-M-3 + SHV-11 + OXA-1)): 1.5 µg/mL | MIC (K. pneumoniae; K. pneumoniae OM2, NDM-1 + TEM-1 + CTX-M-3 + SHV-11 + OXA-1): 1.5 µg/mL | MIC (K. pneumoniae; K. pneumoniae OM4, NDM-1 + TEM-1 + CTX-M-15 + SHV-12 + OXA-9): 16 µg/mL | MIC (K. pneumoniae; K. pneumoniae OM8, NDM-1 + TEM-1 + CTX-M-15 + SHV-11 + OXA-1): 4 µg/mL | MIC (K. pneumoniae; K. pneumoniae OM11, OXA-48 + TEM-1 + CTX-M-14): 0.25 µg/mL | MIC (K. pneumoniae; K. pneumoniae OM13, NDM-1 + TEM-1 + CTX-M-15 + SHV-28 + OXA-1 + OXA-9): 2 µg/mL | MIC (K. pneumoniae; K. pneumoniae OM14, OXA-48 + TEM-1): 0.38 µg/mL | MIC (K. pneumoniae; K. pneumoniae OM15, NDM-1 + CTX-M-15 + SHV-130 + OXA-1): 3 µg/mL | MIC (K. pneumoniae; K. pneumoniae OM16, NDM-1 + CTX-M-15 + OXA-1 + OXA-181): 16 µg/mL | MIC (K. pneumoniae; K. pneumoniae OM19, NDM-1 + CTX-M-15 + SHV-12 + OXA-1): 8 µg/mL | MIC (K. pneumoniae; K. pneumoniae OMA419 (NDM-1 + OXA-1)): 2 µg/mL | MIC (K. pneumoniae; K. pneumoniae OMA419, NDM-1 + OXA-1): 2 µg/mL | MIC (K. pneumoniae; K. pneumoniae OMA601, NDM-1 + CTX-M-15 + OXA-1 + OXA-9): >32 µg/mL | MIC (K. pneumoniae; K. pneumoniae OMA (OXA-181 + CTX-M-15 + OXA-1)): 0.5 µg/mL | MIC (K. pneumoniae; K. pneumoniae OMA, OXA-181 + CTXM-15 + OXA-1): 0.5 µg/mL | MIC (K. pneumoniae; K. pneumoniae RAM (OXA-48)): 1 µg/mL | MIC (K. pneumoniae; K. pneumoniae RAM, OXA-48): 1 µg/mL | MIC (K. pneumoniae; K. pneumoniae ROB (OXA-48 + CTX-M-15 + TEM-1)): 0.5 µg/mL | MIC (K. pneumoniae; K. pneumoniae ROU (OXA-48 + CTX-M-15)): 0.25 µg/mL | MIC (K. pneumoniae; K. pneumoniae ROU, OXA-48 + CTX-M-15): 0.25 µg/mL | MIC (K. pneumoniae; K. pneumoniae SCO (OXA-48)): 0.25 µg/mL | MIC (K. pneumoniae; K. pneumoniae SCO, OXA-48): 0.25 µg/mL | MIC (K. pneumoniae; K. pneumoniae SHI (CTX-M-15 + TEM-1 + SHV-1)): 1 µg/mL | MIC (K. pneumoniae; K. pneumoniae SHI, CTX-M-15 + TEM-1 + SHV-11, non-carbapenemase producer, porin deficiency): 1 µg/mL | MIC (K. pneumoniae; K. pneumoniae SHM (CTX-M-15 + TEM-1 + SHV-11)): 1 µg/mL | MIC (K. pneumoniae; K. pneumoniae SHM, CTX-M-15 + TEM-1 + SHV-11, non-carbapenemase producer, porin deficiency): 3 µg/mL | MIC (K. pneumoniae; K. pneumoniae SIC (OXA-48 + CTX-M-15 + SHV-28)): 0.25 µg/mL | MIC (K. pneumoniae; K. pneumoniae SIC, OXA-48 + CTX-M-15 + SHV-28): 0.25 µg/mL | MIC (K. pneumoniae; K. pneumoniae SIM (CTX-M-15 + TEM-1 + SHV-1)): 6 µg/mL | MIC (K. pneumoniae; K. pneumoniae SIM, CTX-M-15 + TEM-1 + SHV-1, non-carbapenemase producer, porin deficiency): 6 µg/mL | MIC (K. pneumoniae; K. pneumoniae TAW, IMP-8 + SHV-12): 0.5 µg/mL | MIC (K. pneumoniae; K. pneumoniae TIK, OXA-48): 0.38 µg/mL | MIC (K. pneumoniae; K. pneumoniae TUR (IMP-1)): 8 µg/mL | MIC (K. pneumoniae; K. pneumoniae TUR, IMP-1): 8 µg/mL | MIC (K. pneumoniae; K. pneumoniae TWA, IMP-8): 0.5 µg/mL | MIC (K. pneumoniae; K. pneumoniae UK (NDM-1 + CTX-M-15 + CMY-4 + OXA-1)): >32 µg/mL | MIC (K. pneumoniae; K. pneumoniae UK, NDM-1 + CTX-M-15 + CMY-4 + OXA-1): >32 µg/mL | MIC (K. pneumoniae; K. pneumoniae VER, OXA-48 + TEM-1 + CTX-M-15 + SHV-11): 0.38 µg/mL | MIC (K. pneumoniae; K. pneumoniae VSG (OXA-48 + TEM-1 + CTX-M-15 + OXA-1)): 0.75 µg/mL | MIC (K. pneumoniae; K. pneumoniae VSG, OXA-48 + TEM-1 + CTX-M-15 + OXA-1): 0.75 µg/mL | MIC (K. pneumoniae; K. pneumoniae YC, KPC-2 + TEM-1 + SHV-11 + SHV-12 + OXA-9): 2 µg/mL | MIC (K. pneumoniae; strain K. pneumoniae 7725, SHV-1, non-carbapenemase producer): 0.032 µg/mL | MIC (K. pneumoniae; strain K. pneumoniae 648236, SHV-2a, non-carbapenemase producer): 0.38 µg/mL | MIC (K. pneumoniae; strain K. pneumoniae ALE, CTX-M-15 + SHV-1, non-carbapenemase producer): 4 µg/mL | MIC (K. pneumoniae; strain K. pneumoniae AMS, OXA-48 + TEM-1 + CTX-M-15 + OXA-1): 0.38 µg/mL | MIC (K. pneumoniae; strain K. pneumoniae BAJ, OXA-48 + TEM-1 + CTX-M-15 + SHV-28): 0.38 µg/mL | MIC (K. pneumoniae; strain K. pneumoniae BED, CTX-M-15 + TEM-1 + SHV-11, non-carbapenemase producer): 4 µg/mL | MIC (K. pneumoniae; strain K. pneumoniae BEL, OXA-48): 1 µg/mL | MIC (K. pneumoniae; strain K. pneumoniae BEN, OXA-48 + TEM-1 + CTX-M-15 + SHV-28): 0.25 µg/mL | MIC (K. pneumoniae; strain K. pneumoniae BER, SHV-28 + TEM-1, non-carbapenemase producer): 1 µg/mL | MIC (K. pneumoniae; strain K. pneumoniae ELK, OXA-48 + TEM-1 + CTX-M-15 + SHV-11): 0.38 µg/mL | MIC (K. pneumoniae; strain K. pneumoniae HOL, OXA-181 + CTX-M-15): 1 µg/mL | MIC (K. pneumoniae; strain K. pneumoniae MUS, KPC-2 + TEM-1 + SHV-11 + SHV-12): 1.5 µg/mL | MIC (K. pneumoniae; strain K. pneumoniae OM2, NDM-1 + TEM-1 + CTX-M-3 + SHV-11 + OXA-1): 1.5 µg/mL | MIC (K. pneumoniae; strain K. pneumoniae OMA419, NDM-1 + OXA-1): 2 µg/mL | MIC (K. pneumoniae; strain K. pneumoniae OMA, OXA-181 + CTXM-15 + OXA-1): 0.5 µg/mL | MIC (K. pneumoniae; strain K. pneumoniae ROU, OXA-48 + CTX-M-15): 0.25 µg/mL | MIC (K. pneumoniae; strain K. pneumoniae SCO, OXA-48): 0.25 µg/mL | MIC (K. pneumoniae; strain K. pneumoniae SIC, OXA-48 + CTX-M-15 + SHV-28): 0.25 µg/mL | MIC (K. pneumoniae; strain K. pneumoniae VSG, OXA-48 + TEM-1 + CTX-M-15 + OXA-1): 0.75 µg/mL | MIC (S. typhimurium; S. typhimurium 1081 (CTX-M-1)): 0.032 µg/mL | MIC (S. typhimurium; S. typhimurium 1081, CTX-M-1, non-carbapenemase producer): 0.032 µg/mL | MIC (S. typhimurium; strain S. typhimurium 1081, CTX-M-1, non-carbapenemase producer): 0.032 µg/mL
